In data set [1] the test system is human pancreas carcinoma ASPC-1. In words: Tumor growth inhibition, s.c. ASPC-1 xenograft in nude mice. The format is in vivo, NMRI:nu/nu mice. As to conditions: 60 mg/kg/inj. i.v. An excerpt:
The human pancreas carcinoma ASPC-1 was used as s.c. xenotransplantation model in immunodeficient female NMRI:nu/nu mice.
The cells were obtained from ATCC and are cryo-preserved within the EPO tumor bank. They were thawed, expanded in vitro and transplanted as cell suspension subcutaneously (s.c.) in female NMRI:nu/nu mice. The tumor line ASPC-1 is used for testing new anticancer drugs or novel therapeutic strategies. It was therefore selected for this study.
For experimental use 10^7 tumor cells/mouse from the in vitro passage were transplanted s.c. into the flank of each of 10 mice/group at day 0.
(§1) At palpable tumor size (30-100 mm^3) treatment started. The application volume was 0.2 ml/20 g mouse body weight. The test compounds, the vehicle controls and the reference compounds were all given intravenously (i.v.).
(§2) Tumor growth inhibition was used as therapeutic parameter. Additionally, body weight change was determined as signs for toxicity (particularly, potential hematological or gastrointestinal side effects).
Tumor diameters were measured twice weekly with a caliper. Tumor volumes were calculated according to V=(length x (width)^2)/2. For calculation of the relative tumor volume (RTV) the tumor volumes at each measurement day were related to the day of first treatment. At each measurement day the median and mean tumor volumes per group and also the treated to control (T/C) values in percent were calculated (Tables 11-13).
Descriptive statistics were performed on the data of body weight and tumor volume. […] Statistical evaluation was performed with the U-test of Mann and Whitney with a significance level of p≦0.05, using the Windows program […] 6.
All Gemcitabine-conjugates were stored in a freeze-dried form at −20° C. until use. Solutions were prepared immediately before injection by solving the conjugates in saline solution by vortexing in combination with centrifugation until a clear solution of the necessary concentration of the drug was obtained.
Gemcitabine (Gemzar®, charge A4781790 200 mg) was obtained from Lilly Deutschland GmbH and was stored in the dark at −20° C. until use. The final solution of Gemzar® was prepared immediately before injection by mixing the appropriate volume of the original stock solution (200 mg) with saline (0.9%, infusion solution, Ch.-Nr 0205A231, B. Braun Melsungen AG, Germany).

Data set [2] can be described thus: Toxicity in ASPC-1 tumor-bearing nude mice (body weight change, toxic death, blood counts). The format is in vivo, NMRI:nu/nu mice. As to the method:
as §1, §2
Individual body weights of mice were determined twice weekly and mean body weight per group was related to the initial value in percent (body weight change, BWC).
On the day of necropsy mice were sacrificed by cervical dislocation and inspected for gross organ changes.

In data set [3] the test system is human large cell lung carcinoma LXFL-529. In words: Tumor growth inhibition, s.c. LXFL-529 xenograft in nude mice. The format is in vivo, NMRI nu/nu mice. The conditions noted are these: Table 14; for Tumor volume mm^3 (d 14): day 14; for RTV T/C optimum [%]: optimum day in cell. An excerpt:
Mouse strain: NMRI nu/nu, female Animals supplied by: Charles River, Germany Age of mice at implantation: 5-7 weeks
The tumor xenografts LXFL-529 (Fiebig H H, Berger D P, Dengler W A, Wallbrecher E, Winterhalter B R: Combined In Vitro/In Vivo Test Procedure with Human Tumor Xenografts for New Drug Development. Contrib. Oncol., Basel, Karger, 1992, Vol. 42, pp 321-351) used in this study were derived from surgical specimen from patients treated at the University Hospital in Freiburg, Germany, and directly implanted into nude mice. Prior to surgery, most of the patients had not received any chemotherapy.
Tumor fragments were obtained from xenografts in serial passage in nude mice. After removal from donor mice, tumors were cut into fragments (4-5 mm diameter) and placed in PBS until subcutaneous implantation. Recipient mice were anaesthetized by inhalation of isoflurane. A small incision was made in the back and one tumor fragment per animal was transplanted with tweezers. The mice were monitored daily.
At randomization, tumor-bearing animals were stratified according to tumor volume into treatment and vehicle (control) groups. Only animals carrying one tumor of appropriate size (approximately 50-250 mm^3) were considered for randomization. Mice were randomized when the required number of mice qualified for randomization. The day of randomization was designated as day 0, which was also the first day of dosing.
(§3) All test items were formulated in 0.9% NaCl solution and given as i.v. bolus injection despite everolimus, which was given per oral.
(§4) Measurement of tumor volume and body weight as well as calculations of relative tumor volumes were carries out analogue to the procedure described in 1.3.

A short description of data set [4]: Toxicity in LXFL-529 tumor-bearing nude mice (mortality, body weight change). It counts as in vivo. The conditions noted are these: Table 14; days 0, 3, 7, 10 (20 mg/kg); 5 mice; at day 13. As for the experimental part: All experiments were conducted according to the guidelines of the German Animal Welfare Act (Tierschutzgesetz). Animal health was examined prior to tumor implantation and randomization to ensure that only animals without any symptoms of disease were selected to enter testing procedures. During the experiments, animals were monitored daily regarding tumor burden, general condition, feed and water supply.
as §3, §4

Where [5] appears, read: Table 13, days 7, 14, 21, day 27.
The mark [6] stands for this setting: days 0, 3 (10 mg/kg), 7, 10, 14 (15 mg/kg) p.o.
Where [7] appears, read: days 0, 3, 7, 10 (20 mg/kg) i.v.

Marks after values point to notes of the source that are not given here.

As to `Nc1ccn([C@@H]2O[C@H](CO)[C@@H](O)C2(F)F)c(=O)n1` [Gemcitabine], the “RTV T/C (%) Optimum (at day)” value in data set [1] (Table 11, 9 injections, optimum at day 36) is 41.4%; in data set [1] (Table 12, optimum at day 28) it was 23.6%. Besides, the “Tumor volume cm^3/d 44” value in data set [1] (Table 11, days 9, 13, 16, 20, 23, 27, 30, 34, 40, day 44) was 0.272 +/− 0.119* cm^3. For the same molecule, in data set [1] (Table 12, day 28), the “Tumor volume cm^3/d 28” value is 0.159 +/− 0.058* cm^3. For the same molecule, the “RTV T/C (%) d 27” value in data set [1] (setting [5]) turned out to be 55.1%. Further, in data set [1] (setting [5]), the “Tumor volume cm^3/d 27” value is given as 0.480 +/− 0.317 cm^3. In addition, the “Platelets × 10^6/ml (at day 13)” value in data set [2] (Table 11, 60 mg/kg/inj. i.v., day 13) is listed as 915 +/− 105* × 10^6/ml. In addition, the “WBC × 10^6/ml (at day 13)” value in data set [2] (Table 11, white blood cell count, 60 mg/kg/inj. i.v., day 13) is 5.22 +/− 1.47* × 10^6/ml. Also, the “Toxic death (at day)” value in data set [2] (Table 12, 60 mg/kg/inj. i.v., 8 treatments, 8 mice, deaths at d 15, d 18) is reported as 2. Besides, the “BWC [%] (at day)” value in data set [2] (Table 12, body weight change, 60 mg/kg/inj. i.v., at day 17) was −15%; in data set [2] (mouse, in vivo, iv, 60 mg/kg), −2.4 (9) %.
Regarding `CO[C@H]1C[C@@H]2CC[C@@H](C)[C@@](O)(O2)C(=O)C(=O)N2CCCC[C@H]2C(=O)O[C@H]([C@H](C)C[C@@H]2CC[C@@H](OCCO)[C@H](OC)C2)CC(=O)[C@H](C)/C=C(\C)[C@@H](O)[C@@H](OC)C(=O)[C@H](C)C[C@H](C)/C=C/C=C/C=C/1C` [Everolimus], in data set [3] (setting [6]), the “Tumor volume mm^3 (d 14)” value came to 926.1 mm^3 and the “RTV T/C optimum [%]” value is 53.9 (d 14) %.
Turning to `CO[C@H]1C[C@@H]2CC[C@@H](C)[C@@](O)(O2)C(=O)C(=O)N2CCCC[C@H]2C(=O)O[C@H]([C@H](C)C[C@@H]2CC[C@@H](OC(=O)C(C)(CO)CO)[C@H](OC)C2)CC(=O)[C@H](C)/C=C(\C)[C@@H](O)[C@@H](OC)C(=O)[C@H](C)C[C@H](C)/C=C/C=C/C=C/1C` [Temsirolimus], in data set [3] (setting [7]), the “Tumor volume mm^3 (d 14)” value was 1073.7 mm^3 and the “RTV T/C optimum [%]” value is on record as 57.1 (d 10) %. In addition, the “Mortality (at day)” value in data set [4] is listed as 1 (13).

The values above are taken from patent publication US20130217871A1, “CONJUGATES COMPRISING HYDROXYALKYL STARCH AND A CYTOTOXIC AGENT AND PROCESS FOR THEIR PREPARATION” (priority 2010, published 2013).
